Where a name gives a salt, the structure may show the parent alone. Read-outs that look alike come from different tables or passages of the source.
What was measured:
[1] = test system: aortic segments of the rat (contraction induced by PHE); test: Functional test (rat aorta): vascular reactivity on aortic rings without endothelium contracted with phenylephrine; conditions: aortic rings without endothelium contracted with PHE 10^-6 M, read-out: Relaxation (rat aorta + PHE), IC50
Description: Functional Test (Rat Aorta) Study of Vascular Reactivity on Aortic Segments of the Rat. After anaesthesia of the animal, the thoracic aorta is removed and immediately placed in a physiological saline solution (PSS). The proximal thoracic aorta is cleaned of adherent conjunctive tissue and 4 aortic rings (3-4 mm) are cut. The endothelium is removed mechanically without damaging the smooth muscle cells. The rings without endothelium are placed in PSS medium in isolated organ baths maintained at 37° C. in the presence of carbogen. The isometric tension of the rings is recorded by means of a force sensor. At their optimum tension, the rings are subjected to an equilibration period during which the physiological medium is replaced regularly. The preparations are then contracted twice by means of a hyperpotassic solution (KCl 60 mM), each of the 2 contractions being followed by successive washings in order to return to the original tension. The absence of endothelium is verified after contraction by an al-adrenergic receptor agonist, phenylephrine (PHE, 10^−6M), followed by the addition of carbachol (10^−5M), a muscarinic receptor agonist, which induces a relaxation only in the presence of endothelium. The rings are then washed regularly with PSS for 60 minutes in order to remove the pharmacological agents. The rings are recontracted with PHE (10^−6M) and then, after stabilisation of the contraction, the product or its solvent is added in cumulative concentrations, 5 concentrations are tested: 10M^−8, 10^−7M, 10^−6M, 10M^−5 and 3×10^−5M (if the product is dissolved in DMSO) or 10^−4M (if H2O is the solvent of the product). The contractile response is obtained in milligrams (mg). The results are expressed by the mean±SEM of the contractile responses obtained on at least 2 rats. The variations in tension of each product are calculated as a percentage of the maximum contraction induced by PHE before the product is added, according to the formula: % contraction B(t)=[×(mg) tension(compound)B(t)/y (mg) maximum tension (PHE)B]×100. The concentration-response curves obtained are analysed and allow the IC50 value of each product to be determined (IC50: concentration of product necessary to inhibit 50% of the maximum contraction induced by PHE), the estimation of the IC50 value of the concentration-response curves being obtained by non-linear regression.

[2] = test system: arterial pressure of spontaneously hypertensive rats (SHR); test: Evaluation on the arterial pressure in spontaneously hypertensive rats (SHR), telemetry; assay type: in vivo; conditions: SHR rat, maximum change of arterial pressure relative to basal
Protocol: The effect of the ROCK inhibitors was tested by the reduction of the arterial pressure (AP) that they induce in spontaneously hypertensive rats (SHR) after intravenous (i.v.) and/or oral administration. In summary, the SHRs were anaesthetised with 2% isoflurane, and a telemetry probe (PAC40, Data Science International) was implanted in the abdominal aorta to record the AP and a polyethylene catheter was implanted in the jugular vein for the i.v. administration. After recovery from the surgery (2 to 3 weeks), the AP was recorded continuously for 24 hours after administration of the ROCK inhibitors at doses of 1, 3, 10 and 30 mg/kg by the i.v. route and/or by the oral route. The effect on the AP was expressed as the percentage reduction relative to the basal arterial pressure before administration of the product.

human ROCK1 = human ROCK1 (Homo sapiens, UniProt Q13464); test: ROCK1 enzymatic test (LANCE, phosphorylation of Ulight-RRRSLLE (PLK) substrate); assay type: biochemical; conditions: human recombinant enzyme, 1 μM ATP, 50 nM Ulight-RRRSLLE (PLK) substrate, 30 minutes at ambient temperature; read-out: ROCK1(h), IC50
Chain of human ROCK1 (Q13464 whole entry): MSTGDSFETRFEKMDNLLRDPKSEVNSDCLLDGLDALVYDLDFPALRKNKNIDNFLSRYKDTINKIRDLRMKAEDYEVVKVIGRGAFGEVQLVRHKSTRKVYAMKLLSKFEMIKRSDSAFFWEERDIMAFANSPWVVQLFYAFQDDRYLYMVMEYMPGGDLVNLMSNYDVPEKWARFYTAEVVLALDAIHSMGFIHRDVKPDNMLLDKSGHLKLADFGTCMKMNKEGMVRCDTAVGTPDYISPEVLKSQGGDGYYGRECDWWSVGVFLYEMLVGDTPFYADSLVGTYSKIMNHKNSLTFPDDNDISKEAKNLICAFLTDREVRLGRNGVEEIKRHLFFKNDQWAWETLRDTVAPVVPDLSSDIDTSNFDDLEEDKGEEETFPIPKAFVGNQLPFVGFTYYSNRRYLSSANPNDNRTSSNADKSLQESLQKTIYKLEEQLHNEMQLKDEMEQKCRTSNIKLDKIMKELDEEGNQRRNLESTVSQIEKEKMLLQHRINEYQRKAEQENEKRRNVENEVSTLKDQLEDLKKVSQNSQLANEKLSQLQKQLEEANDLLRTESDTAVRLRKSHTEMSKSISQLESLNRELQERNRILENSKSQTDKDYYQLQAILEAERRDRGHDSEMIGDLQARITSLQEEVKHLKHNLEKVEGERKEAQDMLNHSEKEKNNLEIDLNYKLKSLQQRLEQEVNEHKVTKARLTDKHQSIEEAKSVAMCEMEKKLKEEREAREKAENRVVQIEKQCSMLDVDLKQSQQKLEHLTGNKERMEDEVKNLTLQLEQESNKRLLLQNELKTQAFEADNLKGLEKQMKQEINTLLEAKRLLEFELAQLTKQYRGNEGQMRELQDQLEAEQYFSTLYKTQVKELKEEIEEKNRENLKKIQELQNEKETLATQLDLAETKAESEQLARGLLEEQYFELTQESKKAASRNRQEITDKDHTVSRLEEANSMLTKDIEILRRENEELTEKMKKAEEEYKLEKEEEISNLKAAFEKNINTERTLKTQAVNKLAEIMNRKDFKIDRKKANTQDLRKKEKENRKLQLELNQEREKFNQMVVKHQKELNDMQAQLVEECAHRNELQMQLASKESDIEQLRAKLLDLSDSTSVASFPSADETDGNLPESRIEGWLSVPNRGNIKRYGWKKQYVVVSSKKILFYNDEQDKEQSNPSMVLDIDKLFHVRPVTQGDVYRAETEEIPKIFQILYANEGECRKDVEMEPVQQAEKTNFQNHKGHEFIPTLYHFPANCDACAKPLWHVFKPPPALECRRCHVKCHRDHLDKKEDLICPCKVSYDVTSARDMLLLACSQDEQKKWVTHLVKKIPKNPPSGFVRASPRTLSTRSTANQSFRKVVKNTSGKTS
Protocol: Evaluation of the effects of compounds on human ROCK1 activity quantified by measuring the phosphorylation of the substrate Ulight-RRRSLLE (PLK) using a human recombinant enzyme and the LANCE® detection method.
The test compound, the reference compound or water (control) is mixed with the enzyme (8.2 ng) in a buffer comprising 40 mM Hepes/Tris (pH 7.4), 0.8 mM EGTA/Tris, 8 mM MgCl2, 1.6 mM DTT and 0.008% Tween 20.
The reaction is then started by adding 50 nM of Ulight-RRRSLLE (PLK) substrate and 1 μM of ATP, and the mixture is incubated for 30 minutes at ambient temperature. For the basal control measurements, the enzyme is excluded from the reaction mixture.
After the incubation, the reaction is stopped by adding 13 mM of EDTA. After 5 minutes, the anti-phospho-PLK antibody labelled with europium chelate is added. After a further 60 minutes, the fluorescence transfer is measured at lex=337 nm, lem=620 nm and lem=665 nm using a microplate reader (Envision, Perkin Elmer). The enzymatic activity is determined by dividing the signal measured at 665 nm by that measured at 620 nm (ratio). The results are expressed in the form of a percentage inhibition of the control enzymatic activity. The standard reference inhibition compound is staurosporine, which is tested in each experiment at several concentrations in order to obtain an inhibition curve on the basis of which the value of the IC50 (concentration that induces 50% inhibition) is calculated.

[3] = IV 3 mg/kg, read-out: SHR rat ΔAP % max, IV 3 mg/kg
[4] = PO 3 mg/kg, read-out: SHR rat ΔAP % max, PO 3 mg/kg

Row | SMILES | IC50 [1] | change in vivo at 3 mg/kg [2, 3] | change in vivo at 3 mg/kg [2, 4] | IC50 (human ROCK1)
1 | C[C@H](N)c1cc(F)c(C(O)c2cccc3cnccc23)c(F)c1 (single isomer, unassigned; enantiomer 1) [Product P21] | 1000 nM |  |  | 
2 | CC(N)c1cc(F)c(C(=O)c2cccc3cnccc23)c(F)c1 (stereo not drawn) [Product P6, [4-(1-Aminoethyl)-2,6-difluorophenyl](isoquinolin-5-yl)methanone dihydrochloride] | 200 nM | -73.4% | -35.6% | 
3 | C[C@@H](N)c1cc(F)c(C(=O)c2cccc3cnccc23)c(F)c1 [Product P9, {4-[(1R)-1-Aminoethyl]-2,6-difluorophenyl}(isoquinolin-5-yl)methanone dihydrochloride] | 33 nM | -67% | -53.7% | 5.87 nM
4 | CC(N)c1cc(F)c(C(=O)c2cccc3c(O)nccc23)c(F)c1 (stereo not drawn) [Product P17, [4-(1-Aminoethyl)-2,6-difluorophenyl](1-hydroxyisoquinolin-5-yl)methanone hydrochloride] | 14 nM | -72.8% | -56.6% | 4.2 nM
5 | CC(N)c1cc(F)c(Cc2cccc3cnccc23)c(F)c1 (stereo not drawn) [Product P19, 1-[3,5-Difluoro-4-(isoquinolin-5-ylmethyl)phenyl]ethanamine dihydrochloride] | 230 nM | -39.6% |  | 63 nM
6 | CC(C)(N)c1cc(F)c(C(=O)c2cccc3cnccc23)c(F)c1 [Product P24, [4-(2-Aminopropan-2-yl)-2,6-difluorophenyl](isoquinolin-5-yl)methanone dihydrochloride] | 10 nM | -68.2% | -52.5% | 23 nM
7 | CC(C)(N)c1cc(F)c(C(=O)c2cccc3c(=O)[nH]ccc23)c(F)c1 [Product P27, 5-[4-(2-Aminopropan-2-yl)-2,6-difluorobenzoyl]isoquinolin-1(2H)-one hydrochloride] | 50 nM | -69% | -54% | 8.7 nM
8 | COc1c(C(C)N)ccc(C(=O)c2cccc3c(=O)[nH]ccc23)c1F (stereo not drawn) [Product P42, 5-[4-(1-Aminoethyl)-2-fluoro-3-methoxybenzoyl]isoquinolin-1(2H)-one hydrochloride] | 200 nM | -59.9% | -12.3% | 9.6 nM
9 | C[C@@H](N)c1ccc(C(=O)c2cccc3c(=O)[nH]ccc23)c2c1CCCO2 [Product P45, 5-({5-[(1R)-1-Aminoethyl]-3,4-dihydro-2H-chromen-8-yl}carbonyl)isoquinolin-1(2H)-one hydrochloride] | 100 nM | -60.6% | -24% | 5 nM
10 | Cc1cc([C@@H](C)N)ccc1C(=O)c1cccc2c(=O)[nH]ccc12 [Product P47, 5-{4-[(1R)-1-Aminoethyl]-2-methylbenzoyl}isoquinolin-1(2H)-one hydrochloride] | 40 nM | -62.7% | -26.4% | 6.78 nM
11 | CC(NCCO)c1cc(F)c(C(=O)c2cccc3c(=O)[nH]ccc23)c(F)c1 (stereo not drawn) [Product P48, 5-(2,6-Difluoro-4-{1-[(2-hydroxyethyl)amino]ethyl}benzoyl)isoquinolin-1(2H)-one hydrochloride] | 150 nM | -67.3% | -29.2% | 7.45 nM
12 | Cc1c[nH]c(=O)c2cccc(C(=O)c3c(F)cc([C@@H](C)N)cc3F)c12 [Product P50, 5-{4-[(1R)-1-Aminoethyl]-2,6-difluorobenzoyl}-4-methylisoquinolin-1(2H)-one hydrochloride] | 100 nM | -58% | -16.8% | 5.4 nM
13 | C[C@@H](N)c1ccc(F)c(C(=O)c2cccc3c(=O)[nH]ccc23)c1F [Product P56, 5-{3-[(1R)-1-Aminoethyl]-2,6-difluorobenzoyl}isoquinolin-1(2H)-one hydrochloride] | 150 nM | -54.7% |  | 16.5 nM
14 | NC1CCc2c1cc(F)c(C(=O)c1cccc3c(=O)[nH]ccc13)c2F (stereo not drawn) [Product P58, 5-[(1-Amino-4,6-difluoro-2,3-dihydro-1H-inden-5-yl)carbonyl]isoquinolin-1(2H)-one hydrochloride] | 70 nM | -65.1% | -52.7% | 3.85 nM
15 | N[C@@H]1CCc2cc(F)c(C(=O)c3cccc4c(=O)[nH]ccc34)c(F)c21 [Product P59, 5-{[(3R)-3-Amino-4,6-difluoro-2,3-dihydro-1H-inden-5-yl]carbonyl}isoquinolin-1(2H)-one hydrochloride] | 550 nM | -40.3% |  | 1.95 nM
16 | C[C@@H](N)c1ccc(C(=O)c2cccc3c(=O)[nH]ccc23)c2c1OCCO2 [Product P61, 5-({8-[(1R)-1-Aminoethyl]-2,3-dihydro-1,4-benzodioxin-5-yl}carbonyl)isoquinolin-1(2H)-one hydrochloride] | 170 nM | -59% |  | 5.35 nM
17 | O=C(c1c(F)cc(C2CCCCN2)cc1F)c1cccc2c(=O)[nH]ccc12 (stereo not drawn) [Product P75, 5-[2,6-Difluoro-4-(piperidin-2-yl)benzoyl]isoquinolin-1(2H)-one hydrochloride] | 200 nM | -49.8% | -12.4% | 10.4 nM
18 | NC(CC1CCCCC1)c1cc(F)c(C(=O)c2cccc3c(=O)[nH]ccc23)c(F)c1 (stereo not drawn) [Product P129, 5-[4-(1-Amino-2-cyclohexylethyl)-2,6-difluorobenzoyl]isoquinolin-1(2H)-one hydrochloride] | 2000 nM | -30.2% | -18.4% | 20.5 nM
19 | NCC1CCOc2c(C(=O)c3cccc4c(=O)[nH]ccc34)cccc21 (stereo not drawn) [Product P139, 5-{[4-(Aminomethyl)-3,4-dihydro-2H-chromen-8-yl]carbonyl}isoquinolin-1(2H)-one hydrochloride] | 2000 nM |  |  | 87.5 nM

Source: patent US9809553B2, “Isoquinoline compounds, a process for their preparation, and pharmaceutical compositions containing them” (LES LABORATOIRES SERVIER, priority 2014, dated 2017)
